# Measurements reported in patent US9115143B2, “Substituted indole derivatives as gamma secretase modulators” (Janssen Pharmaceuticals, Inc., priority 2011, dated 2015).
# Columns and labels:
# [1] = tested on: Aβ42; experiment: Screening for γ-secretase-modulating activity: Aβ42 in supernatant of SKNBE2 cells carrying hAPP 695 wild type (Alphalisa); type: cell-based, human; details: overnight incubation, Alphalisa on supernatant
# Summary of the method: (§1)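 Secreted Aβ42 (C-terminal/N-terminal antibody pair) and Aβtotal (N-terminal/mid-region pair) were quantified by AlphaLISA after overnight compound exposure of wild-type hAPP 695 SKNBE2 cells at 37 °C. Values expressed relative to compound-free maximum, with IC50 from nonlinear 4-parameter regression.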
# [2] = tested on: Aβtotal; experiment: Screening for γ-secretase-modulating activity: Aβtotal in supernatant of SKNBE2 cells carrying hAPP 695 wild type (Alphalisa); type: cell-based, human; details: overnight incubation, Alphalisa on supernatant
# Summary of the method: as §1
# [3] = tested on: Aβ42; experiment: In vivo efficacy B-1a: brain soluble Aβ42 in non-transgenic rodents, ELISA; design: species or system mouse; details: dose 30 mg/kg oral dosing, brain soluble fraction, untreated animals (Ctrl) set at 100; for response vs control in vivo at 30 mg/kg: Mus musculus, po, read-out: Aβ42 (% vs Ctrl)_Mean
# Excerpt: To determine whether acute administration of an Aβ42 lowering agent would reduce Aβ42 levels in vivo, non-transgenic rodents, e.g. mice or rats were used. Animals treated with the Aβ42 lowering agent were examined and compared to those untreated or treated with vehicle and brain levels of soluble Aβ42 and total Aβ were quantitated by standard techniques, for example, using ELISA. Treatment periods varied from hours (h) to days and were adjusted based on the results of the Aβ42 lowering once a time course of onset of effect could be established.
# A typical protocol for measuring Aβ42 lowering in vivo is shown but it is only one of many variations that could be used to optimize the levels of detectable Aβ. For example, Aβ42 lowering compounds were formulated in 20% of Captisol® (a sulfobutyl ether of β-cyclodextrin) in water or 20% hydroxypropyl β cyclodextrin. The Aβ42 lowering agents were administered as a single oral dose or by any acceptable route of administration to overnight fasted animals. After 4 h, the animals were sacrificed and Aβ42 levels were analysed.
# Blood was collected by decapitation and exsanguinations in EDTA-treated collection tubes. Blood was centrifuged at 1900 g for 10 minutes (min) at 4° C. and the plasma recovered and flash frozen for later analysis. The brain was removed from the cranium and hindbrain. The cerebellum was removed and the left and right hemisphere were separated. The left hemisphere was stored at −18° C. for quantitative analysis of test compound levels. The right hemisphere was rinsed with phosphate-buffered saline (PBS) buffer and immediately frozen on dry ice and stored at −80° C. until homogenization for biochemical assays.
# Mouse brains from non-transgenic animals were resuspended in 8 volumes of 0.4% DEA (diethylamine)/50 mM NaCl containing protease inhibitors (Roche-11873580001 or 04693159001) per gram of tissue, e.g. for 0.158 g brain, add 1.264 mL of 0.4% DEA. All samples were homogenized in the FastPrep-24 system (MP Biomedicals) using lysing matrix D (MPBio #6913-100) at 6 m/s for 20 seconds. Homogenates were centrifuged at 20800×g for 5 min and supernatants collected. Supernatants were centrifuged at 221.300×g for 50 min. The resulting high speed supernatants were then transferred to fresh eppendorf tubes. Nine parts of supernatant were neutralized with 1 part 0.5 M Tris-HCl pH 6.8 and used to quantify Aβtotal and Aβ42.
# To quantify the amount of Aβtotal and Aβ42 in the soluble fraction of the brain homogenates, Enzyme-Linked-Immunosorbent-Assays were used. Briefly, the standards (a dilution of synthetic Aβ1-40 and Aβ1-42, Bachem) were prepared in 1.5 mL Eppendorf tube in Ultraculture, with final concentrations ranging from 10000 to 0.3 pg/mL. The samples and standards were co-incubated with HRPO-labelled N-terminal antibody JRF/rAμ/2 for Aβ42 detection and with the biotinylated mid-domain antibody 4G8 for Aβtotal detection. 50 μl of conjugate/sample or conjugate/standards mixtures were then added to the antibody-coated plate (the capture antibodies selectively recognize the C-terminal end of Aβ42, antibody JRF/cAβ42/26, for Aβ42 detection and the N-terminus of AB, antibody JRF/rAβ/2, for Aβtotal detection). The plate was allowed to incubate overnight at 4° C. in order to allow formation of the antibody-amyloid complex. Following this incubation and subsequent wash steps the ELISA for Aβ42 quantification was finished by addition of Quanta Blu fluorogenic peroxidase substrate according to the manufacturer's instructions (Pierce Corp., Rockford, Ill.). A reading was performed after 10 to 15 min (excitation 320 nm/emission 420 nm).
# In this model a Aβ42 lowering compared to untreated animals would be advantageous, in particular a Aβ42 lowering with at least 10%, more in particular a Aβ42 lowering with at least 20%.
# The results are shown in Table 4 (dose 30 mg/kg oral dosing) (value for untreated animals as control (Ctrl) was set at 100): […]
# [4] = SKNBE2 human neuroblastoma cells carrying hAPP 695 wild type
# [5] = Homo sapiens, SKNBE2, SKNBE2 human neuroblastoma cells carrying hAPP 695 wild type
"IC50 [1, 4] [nM]","IC50 [2, 4] [nM]","IC50 [2, 5] [nM]","IC50 [1, 5] [nM]",SMILES,Aβ42 (% vs Ctrl)_Mean [3] [% vs Ctrl],response vs control in vivo at 30 mg/kg [3] [%],Aβ42 (% vs Ctrl)_Mean ([3]; 30 mg/kg) [% vs Ctrl]
54,,> 10000,,"COc1c(C#N)ccc2[nH]c(-c3cn4c(n3)C(c3ccc(F)cc3C)OCC4)cc12 (stereo not drawn) [Compound 46, 2-[8-(4-fluoro-2-methylphenyl)-5,6-dihydro-8H-imidazo[2,1-c][1,4]oxazin-2-yl]-4-methoxy-1H-indole-5-carbonitrile]",,52,
23,> 10000,,,"COc1c(C#N)ccc2[nH]c(-c3cn4c(n3)C(c3ccc(F)cc3C)OCC4)cc12 (stereo not drawn) [Compound 47, 2-[8-(4-fluoro-2-methylphenyl)-5,6-dihydro-8H-imidazo[2,1-c][1,4]oxazin-2-yl]-4-methoxy-1H-indole-5-carbonitrile]",,,45
,,> 10000,72,"COc1c(C#N)ccc2[nH]c(-c3nc4n(n3)CCOC4c3ccccc3C(F)(F)F)cc12 (stereo not drawn) [Compound 55, 2-[5,6-dihydro-8-[2-(trifluoromethyl)phenyl]-8H-[1,2,4]triazolo[5,1-c][1,4]oxazin-2-yl]-4-methoxy-1H-indole-5-carbonitrile]",,55,
,,3720,25,"COc1c(C#N)ccc2[nH]c(-c3nc4n(n3)CCCC4c3ccc(F)cc3C)cc12 (stereo not drawn) [Compound 59, 2-[8-(4-fluoro-2-methylphenyl)-5,6,7,8-tetrahydro[1,2,4]triazolo[1,5-a]pyridin-2-yl]-4-methoxy-1H-indole-5-carbonitrile]",,55,
4470,> 10000,,,"Cc1cc(F)ccc1C1CCCn2cc(-c3cc4cc(C#N)ccc4[nH]3)nc21 (stereo not drawn) [Compound 63, 2-[8-(4-fluoro-2-methylphenyl)-5,6,7,8-tetrahydroimidazo[1,2-a]pyridin-2-yl]-1H-indole-5-carbonitrile]",,,121
68,> 10000,,,"Cc1cc(F)ccc1C1CCCn2cc(-c3cc4cc(C#N)ccc4[nH]3)nc21 (stereo not drawn) [Compound 64, 2-[8-(4-fluoro-2-methylphenyl)-5,6,7,8-tetrahydroimidazo[1,2-a]pyridin-2-yl]-1H-indole-5-carbonitrile]",,,48
46,,7240,,"Cc1cn(-c2ccc3[nH]c(-c4nc5n(n4)CCCC5c4ccc(F)cc4C)cc3n2)cn1 (stereo not drawn) [Compound 65, 8-(4-fluoro-2-methylphenyl)-5,6,7,8-tetrahydro-2-[5-(4-methyl-1H-imidazol-1-yl)-1H-pyrrolo[3,2-b]pyridin-2-yl]-[1,2,4]triazolo[1,5-a]pyridine]",,82,
117,> 10000,,,"Cc1cc(F)ccc1C1CCCn2nc(-c3cc4nc(-c5cnn(C)c5)ccc4[nH]3)nc21 (stereo not drawn) [Compound 69, 8-(4-fluoro-2-methylphenyl)-5,6,7,8-tetrahydro-2-[5-(1-methyl-1H-pyrazol-4-yl)-1H-pyrrolo[3,2-b]pyridin-2-yl]-[1,2,4]triazolo[1,5-a]pyridine]",,83,
,,> 10000,65,"Cc1cn(-c2cc3cc(-c4nc5n(n4)CCCC5c4ccc(F)cc4C)[nH]c3cn2)cn1 (stereo not drawn) [Compound 71, 8-(4-fluoro-2-methylphenyl)-5,6,7,8-tetrahydro-2-[5-(4-methyl-1H-imidazol-1-yl)-1H-pyrrolo[2,3-c]pyridin-2-yl]-[1,2,4]triazolo[1,5-a]pyridine]",,108,
,,> 10000,43,"Cc1cn(-c2ccc3[nH]c(-c4nc5n(n4)CCCC5c4ccc(F)cc4C)cc3c2)cn1 (stereo not drawn) [Compound 73, 8-(4-fluoro-2-methylphenyl)-5,6,7,8-tetrahydro-2-[5-(4-methyl-1H-imidazol-1-yl)-1H-indol-2-yl]-[1,2,4]triazolo[1,5-a]pyridine]",,43,
,,> 10000,112,"COc1c(C#N)ccc2[nH]c(-c3cn4c(n3)C(c3ccc(F)cc3C)CCC4)cc12 (stereo not drawn) [Compound 74, 2-[8-(4-fluoro-2-methylphenyl)-5,6,7,8-tetrahydroimidazo[1,2-a]pyridin-2-yl]-4-methoxy-1H-indole-5-carbonitrile]",,49,
,,> 10000,74,"COc1c(-c2cnn(C)c2)ccc2[nH]c(-c3cn4c(n3)C(c3ccc(F)cc3C)OCC4)cc12 (stereo not drawn) [Compound 96, 8-(4-fluoro-2-methylphenyl)-5,6-dihydro-2-[4-methoxy-5-(1-methyl-1H-pyrazol-4-yl)-1H-indol-2-yl]-8H-imidazo[2,1-c][1,4]oxazine]",,55,
,,> 10000,78,"Cc1cc(F)ccc1C1OCCn2cc(-c3cc4cc(-c5cnn(C)c5)ccc4[nH]3)nc21 (stereo not drawn) [Compound 99, 8-(4-fluoro-2-methylphenyl)-5,6-dihydro-2-[5-(1-methyl-1H-pyrazol-4-yl)-1H-indol-2-yl]-8H-imidazo[2,1-c][1,4]oxazine]",,63,
93,,> 10000,,"COc1c(C#N)ccc2[nH]c(-c3nc4n(n3)CCOC4c3ccc(F)cc3C)cc12 (stereo not drawn) [Compound 111, 2-[8-(4-fluoro-2-methylphenyl)-5,6-dihydro-8H-[1,2,4]triazolo[5,1-c][1,4]oxazin-2-yl]-4-methoxy-1H-indole-5-carbonitrile]",,87,
32,> 10000,,,"COc1c(C#N)ccc2[nH]c(-c3nc4n(n3)CCOC4c3ccc(F)cc3C)cc12 (stereo not drawn) [Compound 114, 2-[8-(4-fluoro-2-methylphenyl)-5,6-dihydro-8H-[1,2,4]triazolo[5,1-c][1,4]oxazin-2-yl]-4-methoxy-1H-indole-5-carbonitrile]",,,95
89,> 10000,,,"Cc1cn(-c2ccc3[nH]c(-c4nc5n(n4)CCCC5c4ccc(F)cc4C)nc3c2)cn1 (stereo not drawn) [Compound 176, 8-(4-fluoro-2-methylphenyl)-5,6,7,8-tetrahydro-2-[5-(4-methyl-1H-imidazol-1-yl)-1H-benzimidazol-2-yl]-[1,2,4]triazolo[1,5-a]pyridine]",,93,

SMILES,"IC50 [1, 4] [nM]","IC50 [2, 4] [nM]","IC50 [2, 5] [nM]","IC50 [1, 5] [nM]",Aβ42 (% vs Ctrl)_Mean [3] [% vs Ctrl],response vs control in vivo at 30 mg/kg [3] [%],Aβ42 (% vs Ctrl)_Mean ([3]; 30 mg/kg) [% vs Ctrl]
"Cc1cn(-c2ccc3[nH]c(-c4nc5n(n4)CCOC5c4ccc(F)cc4C)cc3c2)cn1 (stereo not drawn) [Compound 39, 8-(4-fluoro-2-methylphenyl)-5,6-dihydro-2-[5-(4-methyl-1H-imidazol-1-yl)-1H-indo-2-yl]-8H-[1,2,4]triazolo[5,1-c][1,4]oxazine]",38,214,,,74,,
